From patent US20260027073A1, “USE OF SMALL-MOLECULE COMPOUND HAVING NAPHTHYLAMINE STRUCTURE” (HANGZHOU PHECDAMED CO., LTD., priority 2023, published 2026)
Where “and” joins values, the source holds several entries; their conditions need not be identical. Identical values can stand only once.

Columns and labels:
[1] = system: middle artery occlusion model in rats; assay: Stroke: middle cerebral artery occlusion (MCAO); assay type: in vivo, SD rats; details: for escape latency (water maze) / number of crossing over the platform (water maze) / apoptosis rate of hippocampal neurons (flow cytometry): 30 mg/kg oral gavage; for escape latency (water maze) / number of crossing over the platform (water maze): 8 weeks; for escape latency (water maze): FIG. 82; for number of crossing over the platform (water maze): FIG. 83; for apoptosis rate of hippocampal neurons (flow cytometry): FIG. 84
Excerpt: 7-8 weeks-old SD male rats were selected and adaptively fed for one week to establish a middle artery occlusion model in rats. After inducing anesthesia in rats using a small animal anesthesia machine, the anesthesia was immediately switched to maintenance, the rats were fixed in the supine position on the operating table, the neck in the middle and the right side of the operative part were shaved, and an incision was made in the middle of the neck after disinfection with alcohol and iodine vapors, and the carotid artery was separated along the tissues under the microscope, to avoid damaging blood vessels and nerves and to reduce the amount of hemorrhage; the electrocoagulation pen was used to cut off small arteries in the paracarotid branch and ligate the external carotid artery, and an another loose knot was played for backup; arterial clips were used to clip the proximal end of internal carotid artery and common carotid artery; the external carotid artery was cut with surgical scissors in the […], the filament was inserted carefully, and the marking point reached the bifurcation of internal and external carotid arteries, which meant that the head of the filament has already reached the middle cerebral artery; the skin was sutured, the symptoms were observed when the animal waked up, and the neurological function was evaluated; the suture line was cut open two hours after the surgery, the filament was drawn out, and ligature the remnant of external carotid artery was ligated tightly. The skin was re-sutured and attention was paid to the postoperative care of the rats. After modeling, drug administration was started in groups, which were divided into three groups: model group (model, treated with 0.5% CMC-Na by oral gavage, n=8) TJ01-013 treatment group (TJ01-013, 30 mg/kg TJ01-013 by oral gavage, n=8), and I-14-1 treatment group (I-14-1, 30 mg/kg I-14-1 by oral gavage, n=8). 8). Another normal control group (Control, 0.5% CMC-Na treatment by oral gavage, n=8) was set up, with performing the corresponding surgical operation, but no carotid artery was ligated and no filament insertion was performed, and the normal control group was administered for a total of 8 weeks, and at the end of the administration, the cognitive function of the rats was examined by using the water maze.
The night before the experiment begins, clean the laboratory and the water maze, the old water in the water maze is drained, the animal excreta should be cleaned up, and the laboratory is ventilated and free of special odor. The water maze was filled with fresh water, and the height of the water surface should be about 2 cm higher than the platform, and the four groups of rats underwent the water maze acclimatization training for 5 days. The above training was divided into a 4-day localization navigation experiment and a 1-day spatial exploration experiment. The water maze device was a circular pool, which was divided into quadrants I, II, III and IV with four equidistant points on the wall, and a circular hidden platform was placed in the center of the fourth quadrant. References were around the pool and kept unchanged, the pool and the platform were black, and black ink was poured into the water and mixed thoroughly so that the rats could not see the circular platform. The temperature of the water was kept at 22˜24° C. and the light in the room was stabilized. For each group of rats, a water maze test was performed at the end of drug administration to examine the cognitive status of the experimental animals. […] The four groups of rats underwent this training for 4 days, four times a day, two times in the morning and two times in the afternoon. At the end of each day, the experimenter thoroughly cleaned the water maze apparatus to prevent the odor of the rats in the water maze from affecting the results of the second day of the experiment. […]

[2] = system: rats of type I diabetes nephropathy model; assay: Kidney injury induced by type 1 diabetic nephropathy (STZ); assay type: in vivo, SD rats
Experimental: 150-170 g SD male rats were fasted but not deprived of water for 12 h before surgery, and a longitudinal incision was made at the intersection of the lower edge of the right rib arch, which was about 1 cm long. Then the three layers of skin, mucous membrane, and muscle were separated layer by layer to expose the perinephric fat, and the perinephric fat was clamped by hemostatic forceps and lifted upward to expose the right kidney, and the right kidney pedicle was ligated and the right kidney was resected, and after no hemorrhage was checked, the tissues were sutured layer by layer. One week after surgery, 1% streptozotocin (STZ) 50 mg/kg was injected intraperitoneally in a volume of […]. Rats in the sham group only had the abdominal cavity opened, the right renal adipose capsule was peeled off, and the right kidney was not resected; the abdominal cavity was closed, the incision was sutured and an equal volume of citrate solution was injected into the tail vein one week later.
Random blood glucose was measured 72 h after STZ injection, and blood glucose ≥16.65 mmol/L was considered as successful diabetes modeling. The successful modeling rats were selected to continue to be fed with normal chow and free water. […] The experiment was divided into sham group (sham group, without STZ modeling and given vehicle by oral gavage), Control group (model control group, STZ modeling and given vehicle treatment by oral gavage), and 15 mg/kg I-1 group (STZ modeling and given 15 mg/kg I-1 by oral gavage), and the dosage of the drug was administered once a day in the volume of 10 ml/kg for 27 days. […] At the end point of the experiment, the rats were euthanized, the kidneys were removed after dissection, and four kidneys were taken to be fixed with 4% paraformaldehyde for 48 h, paraffin-embedded, sectioned and HE stained, and the specific staining procedure was as described above.

[3] = In vitro liver microsomal stability test
Experimental: Ketanserin was selected as the reference compound. The specific method was as follows:
0.1 M K3PO4 (pH 7.4) buffer and 3×NADPH stock solution (6 mM, 5 mg/mL) were configured and preheated in a 37° C. water bath; configuration of the test compounds and the control compounds (spiking solution): adding 5 μL of the compound stock solution ([…]) into 95 μL of acetonitrile; configuration of 1.5 μM spiking solution in microsomes (0.75 mg/mL): adding 1.5 μL of spiking solution and 18.75 μL of liver microsomal solution (20 mg/mL) into 479.75 μL of K3PO4 buffer; adding 30 μL of spiking solution in microsomes into the multiwell plate, and incubating at 37° C. for 5 min; adding 15 μL of NADPH storage solution into each well to start to react, and timing; adding 150 μL of acetonitrile solution containing IS at 0 min, 5 min, 15 min, 30 min, and 45 min, respectively, stopping the reaction; oscillating for 10 min, and then centrifuging at 6,000 rpm for 15 min; taking 80 μL of supernatant from each well for LC/MS detection, and calculating T1/2.

## O=C(O)C[S+]([O-])c1cc(NS(=O)(=O)c2ccc(Br)cc2)c2ccccc2c1O (centres unmarked) [I-1]
[1]
  escape latency (water maze): shorten the escape latency
  number of crossing over the platform (water maze): increased
  apoptosis rate of hippocampal neurons (flow cytometry): significantly reduce
[1]; per readout of the block
  therapeutic effect of TJ01-013 compared with I-14-1: significantly better
[2]; 15 mg/kg oral gavage, 27 days, FIG. 14
  body weight: trend of increasing body weight
[2]; 15 mg/kg, 27 days, FIG. 16
  blood glucose level: no significant effect
[2]; 15 mg/kg, 27 days, FIG. 17
  24-h urine protein level: decrease in the 24-h urine protein level of rats, but there was no significant difference
[2]; 15 mg/kg, 27 days, P<0.5 [sic], FIG. 15
  serum creatinine level: significantly decreased
[2]; 15 mg/kg, 27 days, vs model group, FIG. 18
  degree of renal pathology (HE staining): significant reduction
[2]; Degree of lesion + (mild lesions), 15 mg/kg
  Renal lesion (number of kidneys, n = 4): 3/4 and 3
[2]; Degree of lesion ++ (moderate lesions), 15 mg/kg
  Renal lesion (number of kidneys, n = 4): 0
[2]; Degree of lesion +++ (severe lesions), 15 mg/kg
  Renal lesion (number of kidneys, n = 4): 1/4 and 1
[2]; Degree of lesion ± (slight lesions), 15 mg/kg
  Renal lesion (number of kidneys, n = 4): 0
[2]; Degree of lesion − (no lesions), 15 mg/kg
  Renal lesion (number of kidneys, n = 4): 0
[3]; microsomes
  liver microsomal stability (elimination half-life T1/2): superior liver microsomal stability

## O=C(O)C[S+]([O-])c1cc(NS(=O)(=O)c2ccc(C(F)(F)F)cc2)c2ccccc2c1O (centres unmarked) [I-14-1]
[1]
  escape latency (water maze): shorten the escape latency
  number of crossing over the platform (water maze): increased
  apoptosis rate of hippocampal neurons (flow cytometry): significantly reduce

## O=C(O)CSc1cc(NS(=O)(=O)c2ccc(Br)cc2)c2ccccc2c1O [UMI-77, reference compound]
[2]; UMI-77 vs I-1
  protection against kidney injury in type 1 diabetes compared with I-1 group: less protective
[3]; in vitro mouse or human liver microsomal environment, FIG. 19
  liver microsomal stability (elimination half-life T1/2): unstable
